# Results: patent publication US9446061B2, “Composition containing antibiotics and lysophosphatidylcholine for boosting immunity or treatment of bacterial infections” (priority 2011, dated 2016)
# Experiments:
# [1] = system: CPA-CLP sepsis mouse model; assay: Effects of LPC, LPC isomers, Xigris and DW286aa on mortalities/survivabilities in CPA-CLP sepsis mouse model (SEP009); single i.v. 6 hrs after CLP; assay type: in vivo
# Description: (§1) CPA is well known as an immunosuppressive agent. […] Then, the abdomen was closed following the general procedure.
# (§2) Then, body weight and mortality changes were observed.
# In the Sham and CLP control groups, 10 ml/kg of only sterile physiological saline was single intravenously dosed.
# [2] = system: CPA-CLP sepsis mouse model; assay: Combination effects of LPC and antibiotics (colistin, tobramycin, fusidin) in CPA-CLP sepsis mouse model (SEP013); single i.v. 6 hrs after CLP; assay type: in vivo, ICR mice; details: mpk: LPC 5, DW286aa 5, Colistin 5, Tobra 4, Fusidin 80, LPC + Colistin 5 + 5, LPC + Tobra 5 + 4, LPC + Fusidin 5 + 80
# Excerpt: as §1, §2
# [3] = LPC, LPC18:0, LPC18:1, LPA 5 mpk, Xigris 0.4 mpk, DW286aa 10 mpk, 1st CPA treat
# [4] = LPC, LPC18:0, LPC18:1, LPA 5 mpk, Xigris 0.4 mpk, DW286aa 10 mpk, 2nd CPA treat
# [5] = LPC, LPC18:0, LPC18:1, LPA 5 mpk, Xigris 0.4 mpk, DW286aa 10 mpk, At CLP (day 0)
# [6] = LPC, LPC18:0, LPC18:1, LPA 5 mpk, Xigris 0.4 mpk, DW286aa 10 mpk, Day 1
# [7] = LPC, LPC18:0, LPC18:1, LPA 5 mpk, Xigris 0.4 mpk, DW286aa 10 mpk, Day 2
# [8] = LPC, LPC18:0, LPC18:1, LPA 5 mpk, Xigris 0.4 mpk, DW286aa 10 mpk, Day 3
# [9] = LPC, LPC18:0, LPC18:1, LPA 5 mpk, Xigris 0.4 mpk, DW286aa 10 mpk, Day 4
# [10] = LPC, LPC18:0, LPC18:1, LPA 5 mpk, Xigris 0.4 mpk, DW286aa 10 mpk, Day 5
# [11] = LPC, LPC18:0, LPC18:1, LPA 5 mpk, Xigris 0.4 mpk, DW286aa 10 mpk, Day 6
# [12] = LPC, LPC18:0, LPC18:1, LPA 5 mpk, Xigris 0.4 mpk, DW286aa 10 mpk, Day 7
# [13] = LPC, LPC18:0, LPC18:1, LPA 5 mpk, Xigris 0.4 mpk, DW286aa 10 mpk, Day 8
# [14] = LPC, LPC18:0, LPC18:1, LPA 5 mpk, Xigris 0.4 mpk, DW286aa 10 mpk, Day 9
# [15] = LPC, LPC18:0, LPC18:1, LPA 5 mpk, Xigris 0.4 mpk, DW286aa 10 mpk, Day 10
# [16] = LPC, LPC18:0, LPC18:1, LPA 5 mpk, Xigris 0.4 mpk, DW286aa 10 mpk, Total
# [17] = Xigris 2 mpk, DW286aa 20 mpk, 1st CPA treat
# [18] = Xigris 2 mpk, DW286aa 20 mpk, 2nd CPA treat
# [19] = Xigris 2 mpk, DW286aa 20 mpk, At CLP (day 0)
# [20] = Xigris 2 mpk, DW286aa 20 mpk, Day 1
# [21] = Xigris 2 mpk, DW286aa 20 mpk, Day 2
# [22] = Xigris 2 mpk, DW286aa 20 mpk, Day 3
# [23] = Xigris 2 mpk, DW286aa 20 mpk, Day 4
# [24] = Xigris 2 mpk, DW286aa 20 mpk, Day 5
# [25] = Xigris 2 mpk, DW286aa 20 mpk, Day 6
# [26] = Xigris 2 mpk, DW286aa 20 mpk, Day 7
# [27] = Xigris 2 mpk, DW286aa 20 mpk, Day 8
# [28] = Xigris 2 mpk, DW286aa 20 mpk, Day 9
# [29] = Xigris 2 mpk, DW286aa 20 mpk, Day 10
# [30] = Xigris 2 mpk, DW286aa 20 mpk, Total
compound,measurement,setting,value
CCCCCCCCCCCCCCCCCC(=O)OC[C@@H](O)COP(=O)([O-])OCC[N+](C)(C)C [LPC18:0],Mortalities,[1]; [3],0
same,survivabilities,[1]; [3],100%
same,Mortalities,[1]; [4],0
same,survivabilities,[1]; [4],100%
same,Mortalities,[1]; [5],0
same,survivabilities,[1]; [5],100%
same,Mortalities,[1]; [6],0
same,survivabilities,[1]; [6],100%
same,Mortalities,[1]; [7],6
same,survivabilities,[1]; [7],40%
same,Mortalities,[1]; [8],0
same,survivabilities,[1]; [8],40%
same,Mortalities,[1]; [9],1
same,survivabilities,[1]; [9],30%
same,Mortalities,[1]; [10],1
same,survivabilities,[1]; [10],20%
same,Mortalities,[1]; [11],0
same,survivabilities,[1]; [11],20%
same,Mortalities,[1]; [12],1
same,survivabilities,[1]; [12],10%
same,Mortalities,[1]; [13],1
same,survivabilities,[1]; [13],0%
same,Mortalities,[1]; [14],0
same,survivabilities,[1]; [14],0%
same,Mortalities,[1]; [15],0
same,survivabilities,[1]; [15],0%
same,Mortalities,[1]; [16],10
same,survivabilities,[1]; [16],0%
colistin,Mortalities,[2]; 1st CPA treat,0
same,Survivalities,[2]; 1st CPA treat,100%
same,Mortalities,[2]; 2nd CPA treat,0
same,Survivalities,[2]; 2nd CPA treat,100%
same,Mortalities,[2]; At CLP (day 0),0
same,Survivalities,[2]; At CLP (day 0),100%
same,Mortalities,[2]; Day 1,1
same,Survivalities,[2]; Day 1,90%
same,Mortalities,[2]; Day 2,5
same,Survivalities,[2]; Day 2,40%
same,Mortalities,[2]; Day 3,2
same,Survivalities,[2]; Day 3,20%
same,Mortalities,[2]; Total,9
same,Survivalities,[2]; Total,20%
"drotrecogin alfa (activated) [Xigris, reference compound]",Mortalities,[1]; [3],0
same,survivabilities,[1]; [3],100%
same,Mortalities,[1]; [4],0
same,survivabilities,[1]; [4],100%
same,Mortalities,[1]; [5],0
same,survivabilities,[1]; [5],100%
same,Mortalities,[1]; [6],3
same,survivabilities,[1]; [6],70%
same,Mortalities,[1]; [7],4
same,survivabilities,[1]; [7],30%
same,Mortalities,[1]; [8],2
same,survivabilities,[1]; [8],10%
same,Mortalities,[1]; [9],0
same,survivabilities,[1]; [9],10%
same,Mortalities,[1]; [10],0
same,survivabilities,[1]; [10],10%
same,Mortalities,[1]; [11],0
same,survivabilities,[1]; [11],10%
same,Mortalities,[1]; [12],0
same,survivabilities,[1]; [12],10%
same,Mortalities,[1]; [13],1
same,survivabilities,[1]; [13],0%
same,Mortalities,[1]; [14],0
same,survivabilities,[1]; [14],0%
same,Mortalities,[1]; [15],0
same,survivabilities,[1]; [15],0%
same,Mortalities,[1]; [16],10
same,survivabilities,[1]; [16],0%
same,Mortalities,[1]; [17],0
same,survivabilities,[1]; [17],100%
same,Mortalities,[1]; [18],0
same,survivabilities,[1]; [18],100%
same,Mortalities,[1]; [19],0
same,survivabilities,[1]; [19],100%
same,Mortalities,[1]; [20],0
same,survivabilities,[1]; [20],100%
same,Mortalities,[1]; [21],5
same,survivabilities,[1]; [21],50%
same,Mortalities,[1]; [22],1
same,survivabilities,[1]; [22],40%
same,Mortalities,[1]; [23],3
same,survivabilities,[1]; [23],10%
same,Mortalities,[1]; [24],0
same,survivabilities,[1]; [24],10%
same,Mortalities,[1]; [25],0
same,survivabilities,[1]; [25],10%
same,Mortalities,[1]; [26],0
same,survivabilities,[1]; [26],10%
same,Mortalities,[1]; [27],1
same,survivabilities,[1]; [27],0%
same,Mortalities,[1]; [28],0
same,survivabilities,[1]; [28],0%
same,Mortalities,[1]; [29],0
same,survivabilities,[1]; [29],0%
same,Mortalities,[1]; [30],10
same,survivabilities,[1]; [30],0%
"NC[C@H]1O[C@H](O[C@H]2[C@H](O)[C@@H](O[C@H]3O[C@H](CO)[C@@H](O)[C@H](N)[C@H]3O)[C@H](N)C[C@@H]2N)[C@H](N)C[C@@H]1O [Tobra, tobramycin]",Mortalities,[2]; 1st CPA treat,0
same,Survivalities,[2]; 1st CPA treat,100%
same,Mortalities,[2]; 2nd CPA treat,0
same,Survivalities,[2]; 2nd CPA treat,100%
same,Mortalities,[2]; At CLP (day 0),0
same,Survivalities,[2]; At CLP (day 0),100%
same,Mortalities,[2]; Day 1,2
same,Survivalities,[2]; Day 1,80%
same,Mortalities,[2]; Day 2,5
same,Survivalities,[2]; Day 2,30%
same,Mortalities,[2]; Day 3,1
same,Survivalities,[2]; Day 3,20%
same,Mortalities,[2]; Total,8
same,Survivalities,[2]; Total,20%
1-oleoyl-2-hydroxy-sn-glycero-3-phosphocholine [LPC18:1],Mortalities,[1]; [3],0
same,survivabilities,[1]; [3],100%
same,Mortalities,[1]; [4],0
same,survivabilities,[1]; [4],100%
same,Mortalities,[1]; [5],0
same,survivabilities,[1]; [5],100%
same,Mortalities,[1]; [6],0
same,survivabilities,[1]; [6],100%
same,Mortalities,[1]; [7],10
same,survivabilities,[1]; [7],0%
same,Mortalities,[1]; [8],0
same,survivabilities,[1]; [8],0%
same,Mortalities,[1]; [9],0
same,survivabilities,[1]; [9],0%
same,Mortalities,[1]; [10],0
same,survivabilities,[1]; [10],0%
same,Mortalities,[1]; [11],0
same,survivabilities,[1]; [11],0%
same,Mortalities,[1]; [12],0
same,survivabilities,[1]; [12],0%
same,Mortalities,[1]; [13],0
same,survivabilities,[1]; [13],0%
same,Mortalities,[1]; [14],0
same,survivabilities,[1]; [14],0%
same,Mortalities,[1]; [15],0
same,survivabilities,[1]; [15],0%
same,Mortalities,[1]; [16],10
same,survivabilities,[1]; [16],0%
